# According to patent US10787450B2 (BRISTOL-MYERS SQUIBB COMPANY, priority 2016, dated 2020):
# Molecular target: ROCK2 (Homo sapiens (Human), UniProt O75116)
# Assay: ROCK2 kinase inhibition assay (FITC peptide substrate, LABCHIP 3000 Reader)
# Type: biochemical
# Details: 5 μM ATP, 1.5 μM peptide substrate
# Outline: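 IC50 derived by curve fitting of dose-response inhibition, read as separation of phosphorylated from unphosphorylated FITC peptide (1.5 μM) after EDTA stop. Buffer: HEPES pH 7.5, MgCl2, Brij-35, DTT; ATP 5 μM; final DMSO <2%; reaction initiated by Rho kinase addition.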
# Chain of ROCK2 (O75116 whole entry, species assumed): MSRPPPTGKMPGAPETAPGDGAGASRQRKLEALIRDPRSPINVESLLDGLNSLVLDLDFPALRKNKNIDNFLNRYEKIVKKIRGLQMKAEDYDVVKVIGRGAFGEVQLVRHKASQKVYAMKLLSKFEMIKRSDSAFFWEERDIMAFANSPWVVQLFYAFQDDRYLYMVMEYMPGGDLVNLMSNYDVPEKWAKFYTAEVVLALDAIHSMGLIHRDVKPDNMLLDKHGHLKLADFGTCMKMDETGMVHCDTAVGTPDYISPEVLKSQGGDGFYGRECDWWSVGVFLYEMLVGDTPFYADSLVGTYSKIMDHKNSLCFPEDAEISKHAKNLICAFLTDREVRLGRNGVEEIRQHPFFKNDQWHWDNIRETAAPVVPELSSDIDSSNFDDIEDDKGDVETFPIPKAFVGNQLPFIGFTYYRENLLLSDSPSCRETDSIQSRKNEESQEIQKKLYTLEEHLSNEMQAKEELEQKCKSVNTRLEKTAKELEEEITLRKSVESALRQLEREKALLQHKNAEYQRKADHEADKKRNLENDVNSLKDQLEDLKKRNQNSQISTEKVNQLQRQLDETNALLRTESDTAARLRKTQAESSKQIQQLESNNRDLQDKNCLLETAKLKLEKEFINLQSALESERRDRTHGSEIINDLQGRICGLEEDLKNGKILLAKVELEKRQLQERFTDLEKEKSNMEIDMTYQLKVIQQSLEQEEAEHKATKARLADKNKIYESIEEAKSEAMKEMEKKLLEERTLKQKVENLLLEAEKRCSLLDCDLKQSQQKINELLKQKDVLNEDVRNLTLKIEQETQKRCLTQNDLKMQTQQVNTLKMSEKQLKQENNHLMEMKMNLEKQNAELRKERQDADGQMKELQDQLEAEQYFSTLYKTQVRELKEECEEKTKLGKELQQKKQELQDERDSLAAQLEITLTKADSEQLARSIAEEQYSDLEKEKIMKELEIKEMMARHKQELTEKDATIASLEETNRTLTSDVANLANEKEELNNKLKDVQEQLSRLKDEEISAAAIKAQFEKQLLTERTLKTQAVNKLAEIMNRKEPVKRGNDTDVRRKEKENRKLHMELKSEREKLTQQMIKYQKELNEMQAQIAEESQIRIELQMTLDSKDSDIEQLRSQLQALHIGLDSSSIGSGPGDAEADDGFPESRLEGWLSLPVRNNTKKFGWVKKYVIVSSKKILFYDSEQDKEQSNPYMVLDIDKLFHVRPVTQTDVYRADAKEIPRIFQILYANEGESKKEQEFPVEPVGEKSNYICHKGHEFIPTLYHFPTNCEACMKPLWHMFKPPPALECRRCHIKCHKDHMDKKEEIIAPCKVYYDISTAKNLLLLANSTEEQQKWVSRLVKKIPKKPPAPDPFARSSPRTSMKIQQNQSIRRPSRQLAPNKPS
row,Compound,IC50 [nM]
1,"COc1cccc(CN2C(=O)N(c3ccc(-c4cn[nH]c4)cc3)CC23CCN(C(=O)C(C)(C)O)CC3)c1 [Example 192, 3-(4-(1H-pyrazol-4-yl)phenyl)-8-(2-hydroxy-2-methylpropanoyl)-1-(3-methoxybenzyl)-1,3,8-triazaspiro[4.5]decan-2-one]",< 3
2,"COc1cccc(CN2C(=O)N(c3ccc(-c4cn[nH]c4)c(OC)n3)CC23CCN(C(=O)OC(C)(C)C)CC3)c1 [Example 54, tert-butyl 3-(6-methoxy-5-(1H-pyrazol-4-yl)pyridin-2-yl)-1-(3-methoxybenzyl)-2-oxo-1,3,8-triazaspiro[4.5]decane-8-carboxylate]",< 3
3,"CC(C)NC(=O)c1cccc(CN2C(=O)N(c3ccc(-c4cn[nH]c4)cc3)CC23CCOCC3)c1 [Example 34, 3-((3-(4-(1H-pyrazol-4-yl)phenyl)-2-oxo-8-oxa-1,3-diazaspiro[4.5]decan-1-yl)methyl)-N-isopropylbenzamide]",3 to 30
4,"COc1cccc(NC2C(=O)N(c3ccc(-c4cn[nH]c4)cc3)CC23CN(C(=O)C2COC2)C3)c1 (stereo not shown) [Example 245, 6-(4-(1H-pyrazol-4-yl)phenyl)-8-((3-methoxy-phenyl)amino)-2-(oxetane-3-carbonyl)-2,6-diazaspiro [3.4]octan-7-one]",250 to 3000
5,"CCc1nc(N2CC3(CCN(C(=O)C(C)(C)O)CC3)N(Cc3cc(F)cc(OC)c3)C2=O)ccc1-c1cn[nH]c1 [Example 187, 3-(6-ethyl-5-(1H-pyrazol-4-yl)pyridin-2-yl)-1-(3-fluoro-5-methoxybenzyl)-8-(2-hydroxy-2-methylpropanoyl)-1,3,8-triazaspiro[4.5]decan-2-one]",< 3
6,"COc1cccc(CN2C(=O)N(c3ccc(-c4cn[nH]c4)cn3)CC23CCN(C(=O)CO)CC3)c1 [Example 195, 3-(5-(1H-pyrazol-4-yl)pyridin-2-yl)-8-(2-hydroxyacetyl)-1-(3-methoxybenzyl)-1,3,8-triazaspiro[4.5]decan-2-one]",3 to 30
7,"COc1nc(N2CC3(CCN(C(=O)CO)CC3)N(Cc3cccc(F)c3C)C2=O)ccc1-c1cn[nH]c1 [Example 229, 1-(3-fluoro-2-methylbenzyl)-8-(2-hydroxyacetyl)-3-(6-methoxy-5-(1H-pyrazol-4-yl)pyridin-2-yl)-1,3,8-triazaspiro[4.5]decan-2-one]",< 3
8,"COc1cccc(CN2C(=O)N(c3ccc(-c4cn[nH]c4)c(OC)n3)CC23CCN(C(=O)C2COC2)CC3)c1 [Example 223, 3-(6-methoxy-5-(1H-pyrazol-4-yl)pyridin-2-yl)-1-(3-methoxybenzyl)-8-(oxetane-3-carbonyl)-1,3,8-triazaspiro[4.5]decan-2-one]",< 3
9,"COc1cccc(CN2C(=O)N(c3ncc(-c4cn[nH]c4)c(OC)n3)CC23CCN(C(=O)C(C)C)CC3)c1 [Example 215, 8-isobutyryl-3-(4-methoxy-5-(1H-pyrazol-4-yl)pyrimidin-2-yl)-1-(3-methoxybenzyl)-1,3,8-triazaspiro[4.5]decan-2-one]",30 to 250
10,"COc1cccc(CN2C(=O)N(c3ccc(-c4cn[nH]c4)cc3)CC23CCN(CC2CC2)CC3)c1 [Example 115, 3-(4-(1H-pyrazol-4-yl)phenyl)-8-(cyclopropylmethyl)-1-(3-methoxybenzyl)-1,3,8-triazaspiro[4.5]decan-2-one]",< 3
11,"COc1cccc(CN2C(=O)N(c3ccc(-c4cn[nH]c4)cc3)CC23CCOCC3)c1 [Example 9, 3-(4-(1H-pyrazol-4-yl)phenyl)-1-(3-methoxybenzyl)-8-oxa-1,3-diazaspiro[4.5]decan-2-one]",< 3
12,"O=C1N(c2ccc(-c3cn[nH]c3)cc2)CC2(CCOCC2)N1Cc1cccc(Cl)c1 [Example 16, 3-(4-(1H-pyrazol-4-yl)phenyl)-1-(3-chlorobenzyl)-8-oxa-1,3-diazaspiro[4.5]decan-2-one]",3 to 30
13,"CCc1nc(N2CC3(CCN(C(=O)CO)CC3)N(Cc3cccc(F)c3C)C2=O)ccc1-c1cn[nH]c1 [Example 181, 3-(6-ethyl-5-(1H-pyrazol-4-yl)pyridin-2-yl)-1-(3-fluoro-2-methylbenzyl)-8-(2-hydroxyacetyl)-1,3,8-triazaspiro[4.5]decan-2-one]",< 3
